In patent publication US20220112515A1, “Method for Producing Virus-Infected Cell Line and Animal Model” (INDUSTRY-ACADEMIC COOPERATION FOUNDATION, YONSEI UNIVERSITY, priority 2018, published 2022):

Assays:
[1] = tested on: H4-II-E cell line; details: HCV mixed with tCA
Description: (§1) For production of enveloped virus-infected cell line models, HBV (1×10^6 copies/ml/well of HBV) isolated in Example 1 above was mixed with 100 μmol/L of taurochenodeoxycholic acid (hereinafter referred to as ‘tCDCA’), and HCV (1×10^6 IU/ml/well of HCV) isolated in Example 1 above was mixed with tCDCA or taurocholic acid (hereinafter referred to as ‘tCA’). Here, tCA was mixed with HCV and used to infect mouse hepatocytes; and tCDCA was used in all other cases.
(§2) A cell line (HepG2, Huh-7, A549, A-498, MDA-MB-231, Jurkat, HeLa, Hepa1c1c7, EL4, H4-II-E, LA-4, LC540, or RAG cell line) at 5×10^6 cells/ml was dispensed into each well of a 6-well plate, and culture was performed for 24 hours. Then, the tCDCA or tCA solution mixed with HBV or HCV was added thereto, and culture was further performed for 24 hours. Here, as a control, a group, to which only HBV or HCV was added without the tCDCA or tCA solution, was used. […] Finally, the cell culture medium was treated with 100 μmol/L of tCDCA or tCA, and culture was further performed for 3 days, thereby producing a virus-infected cell line model (hereinafter referred to as “infected cell line”).
(§3) The levels of HCV core and HCV RNA present were measured in each of the HCV-infected cell lines produced and the culture medium collected therefrom. […]

[2] = tested on: Hepa1c1c7 cell line; details: HCV mixed with tCA (mouse hepatocytes)
Description: as §1, §2, §3

[3] = tested on: HepG2 cell line; assay: HBV infection of HepG2 cell line with tCDCA-mixed HBV; type: cell-based, human; details: HBV mixed with 100 μmol/L tCDCA
Description: (§4) In addition, […] was performed using an anti-HBcAg antibody, to measure a level of HBcAg present. Specifically, 100 μl/well of anti-HBcAg antibody (10E11) (cat no. MA1-7608; Thermo Fisher, USA) was added to a micro ELISA plate, and the reaction was allowed to proceed at 4° C. overnight. Then, 200 μl/well of 1× ELISA/ELISPOT Diluent (Invitrogen, USA) was additionally added thereto, and the reaction was allowed to proceed for 1 hour. Each of the HBV-infected cell lines produced was dispensed into each well, in which the reaction had been completed, and the reaction was allowed to proceed for 2 hours. Then, the anti-HBcAg antibody (10E11) diluted in a ratio of 1:30 with 100 μl of 1× ELISA/ELISPOT Diluent was added to the plate, and the reaction was allowed to proceed for 1 hour. Then, the additional reaction with 100 μl of HRP-conjugated anti-rabbit IgG was allowed to proceed for 30 minutes. Here, as a positive control, PLC/PRF5 cell line (human liver-derived cell line that releases HBV surface antigen) was used, and levels of HBsAg and HBcAg present therein were measured.

[4] = tested on: A498 cell line; assay: HBV infection of A498 cell line with tCDCA-mixed HBV; type: cell-based, human; details: HBV mixed with 100 μmol/L tCDCA
Description: as §4

[5] = tested on: RAG cell line; assay: HBV infection of RAG cell line with tCDCA-mixed HBV; type: cell-based, mouse; details: HBV mixed with 100 μmol/L tCDCA
Description: as §4

[6] = tested on: Huh-7 cell line; assay: HCV infection of Huh-7 cell line with tCDCA-mixed HCV; type: cell-based, human
Description: (§5) The levels of HCV core and HCV RNA present were measured in each of the HCV-infected cell lines produced and the culture medium collected therefrom. Specifically, measurement of HCV RNA was performed by requesting a specialized inspection agency (Biogeno Korea Co., Ltd., Korea) that utilizes the Roche's COBAS TaqMan system. Here, as a control, a group treated with only HCV without a bile acid derivative was used.

[7] = tested on: LC540 cell line; assay: HBV infection of LC540 cell line with tCDCA-mixed HBV; type: cell-based, rat; details: HBV mixed with 100 μmol/L tCDCA
Description: as §4

[8] = tested on: A549 cell line; assay: HCV infection of A549 cell line with tCDCA-mixed HCV; type: cell-based, human
[9] = tested on: EL4 cell line; assay: HBV infection of EL4 cell line with tCDCA-mixed HBV; type: cell-based, mouse; details: HBV mixed with 100 μmol/L tCDCA
Description: as §4

[10] = tested on: LC540 cell line; assay: HCV infection of LC540 cell line with tCDCA-mixed HCV; type: cell-based, rat
Description: as §5

[11] = tested on: Huh-7 cell line; assay: HBV infection of Huh-7 cell line with tCDCA-mixed HBV; type: cell-based, human; details: HBV mixed with 100 μmol/L tCDCA
Description: as §4

[12] = tested on: Jurkat cell line; assay: HCV infection of Jurkat cell line with tCDCA-mixed HCV; type: cell-based, human
Description: as §5

[13] = tested on: MDA-MB-231 cell line; assay: HCV infection of MDA-MB-231 cell line with tCDCA-mixed HCV; type: cell-based, human
[14] = tested on: Jurkat cell line; assay: HBV infection of Jurkat cell line with tCDCA-mixed HBV; type: cell-based, human; details: HBV mixed with 100 μmol/L tCDCA
Description: as §4

[15] = tested on: A498 cell line; assay: HCV infection of A498 cell line with tCDCA-mixed HCV; type: cell-based, human
[16] = tested on: HeLa cell line; assay: HBV infection of HeLa cell line with tCDCA-mixed HBV; type: cell-based, human; details: HBV mixed with 100 μmol/L tCDCA
Description: as §4

[17] = tested on: Hepa1c1c7 cell line; assay: HBV infection of Hepa1c1c7 cell line with tCDCA-mixed HBV; type: cell-based, mouse; details: HBV mixed with 100 μmol/L tCDCA
Description: as §4

[18] = tested on: HepG2 cell line; assay: HCV infection of HepG2 cell line with tCDCA-mixed HCV; type: cell-based, human
[19] = tested on: MDA-MB-231 cell line; assay: HBV infection of MDA-MB-231 cell line with tCDCA-mixed HBV; type: cell-based, human; details: HBV mixed with 100 μmol/L tCDCA
Description: as §4

[20] = tested on: H4-II-E cell line; assay: HBV infection of H4-II-E cell line with tCDCA-mixed HBV; type: cell-based, rat; details: HBV mixed with 100 μmol/L tCDCA
Description: as §4

[21] = tested on: EL4 cell line; assay: HCV infection of EL4 cell line with tCDCA-mixed HCV; type: cell-based, mouse
Description: as §5

## C[C@H](CCC(=O)NCCS(=O)(=O)O)[C@H]1CC[C@H]2[C@@H]3[C@H](O)C[C@@H]4C[C@H](O)CC[C@]4(C)[C@H]3C[C@H](O)[C@]12C [tCA, taurocholic acid]
[1]
  HCV RNA (IU/ml): 197.33 IU/ml
[2]
  HCV RNA (IU/ml): 3430 IU/ml

## C[C@H](CCC(=O)NCCS(=O)(=O)O)[C@H]1CC[C@H]2[C@@H]3[C@H](O)C[C@@H]4C[C@H](O)CC[C@]4(C)[C@H]3CC[C@]12C [tCDCA, taurochenodeoxycholic acid]
[3]
  HBV DNA (copies/ml): 3,590,000 ± 1,010,000 copies/ml
  HBsAg (Index): 474.70 ± 176.30 Index
[3]; FACS
  HBcAg (Index): 61.6%
[4]
  HBV DNA (copies/ml): 73,500 ± 23,292 copies/ml
  HBsAg (Index): 5.12 ± 0.19 Index
[4]; FACS
  HBcAg (Index): 67.1%
[5]
  HBV DNA (copies/ml): 11,700 (622, 000) copies/ml
  HBsAg (Index): 21 (744) Index
[5]; FACS
  HBcAg (Index): 76.6%
[6]
  HCV RNA (IU/ml): 628.066 IU/ml
[7]
  HBV DNA (copies/ml): 149,000 ± 29,866 copies/ml
  HBsAg (Index): 3.06 ± 0.44 Index
[8]
  HCV RNA (IU/ml): 4550 IU/ml
[9]
  HBV DNA (copies/ml): 673,000 ± 60,053 copies/ml
  HBsAg (Index): 192.7 ± 30.60 Index
[9]; FACS
  HBcAg (Index): 66.9%
[10]
  HCV RNA (IU/ml): 21.7 IU/ml
[11]
  HBV DNA (copies/ml): 89,000 ± 1,836 copies/ml
  HBsAg (Index): 26.02 ± 5.97 Index
[11]; FACS
  HBcAg (Index): 69.8%
[12]
  HCV RNA (IU/ml): 3326.667 IU/ml
[13]
  HCV RNA (IU/ml): 605 IU/ml
[14]
  HBV DNA (copies/ml): 868,000 ± 88,963 copies/ml
  HBsAg (Index): 1081 ± 329 Index
[14]; FACS
  HBcAg (Index): 37.5%
[15]
  HCV RNA (IU/ml): 610 IU/ml
[16]
  HBV DNA (copies/ml): 359 copies/ml
  HBsAg (Index): 61.35 Index
[16]; FACS
  HBcAg (Index): 89.6%
[17]
  HBV DNA (copies/ml): 7,036,667 copies/ml
  HBsAg (Index): 508.26 ± 107.6 Index
[17]; FACS
  HBcAg (Index): 77.1%
[18]
  HCV RNA (IU/ml): 85.233 IU/ml
[19]
  HBV DNA (copies/ml): 116 copies/ml
  HBsAg (Index): 169 Index
[19]; FACS
  HBcAg (Index): 87.4%
[20]
  HBV DNA (copies/ml): 73,000 ± 51,929 copies/ml
  HBsAg (Index): 22.73 ± 4.39 Index
[20]; FACS
  HBcAg (Index): 32.6%
[21]
  HCV RNA (IU/ml): 1669 IU/ml
